Measurements: the supplement of paper PMC6045584
± gives the standard deviation of the averaged measurements.

Assays:
LENVATINIB = compound: COc1cc2nccc(Oc3ccc(NC(=O)NC4CC4)c(Cl)c3)c2cc1C(N)=O [LENVATINIB]; test: surviving fraction relative to DMSO-only wells; higher = less growth inhibition; conditions: exposure time: 5 days
Summary of the method: (§1)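 Viability was determined by CellTiter-Glo luminescence, expressed as surviving fraction normalised to the median of DMSO-only wells. The cells were log-phase tumour cell lines seeded at 250–500 per well in 384-well plates and, after 24 hours, exposed continuously for five days to inhibitors at 0.5, 1, 5, 10, 50, 100, 500 and 1000 nM. Three screens per line were run, keeping only lines with replicate Pearson r >0.7 and median Z' >0.3.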

IMATINIB = compound: Cc1ccc(NC(=O)c2ccc(CN3CCN(C)CC3)cc2)cc1Nc1nccc(-c2cccnc2)n1 [IMATINIB]; test: as above; conditions: exposure time: 5 days
Summary of the method: as §1

Test System | surviving fraction (LENVATINIB; 0.5 nM) | surviving fraction (LENVATINIB; 1 nM) | surviving fraction (LENVATINIB; 5 nM) | surviving fraction (LENVATINIB; 10 nM) | surviving fraction (LENVATINIB; 50 nM) | surviving fraction (LENVATINIB; 100 nM) | surviving fraction (LENVATINIB; 500 nM) | surviving fraction (LENVATINIB; 1000 nM) | surviving fraction (IMATINIB; 0.5 nM) | surviving fraction (IMATINIB; 1 nM) | surviving fraction (IMATINIB; 5 nM) | surviving fraction (IMATINIB; 10 nM) | surviving fraction (IMATINIB; 500 nM) | surviving fraction (IMATINIB; 50 nM) | surviving fraction (IMATINIB; 100 nM) | surviving fraction (IMATINIB; 1000 nM)
22RV1 PROSTATE | 1.06 ± 0.03 | 1.05 ± 0.056 | 1.05 ± 0.059 | 1.01 ± 0.075 | 1.05 ± 0.11 | 0.97 ± 0.031 | 1.08 ± 0.032 | 1.06 ± 0.12 | 1.06 ± 0.068 | 1.08 ± 0.019 | 1 ± 0.1 | 1.05 ± 0.046 | 1.14 ± 0.14 |  |  | 
93VU HEADNECK | 1.05 ± 0.044 | 1.11 ± 0.074 | 1.09 ± 0.12 | 1.167 ± 0.0038 | 1.18 ± 0.087 | 1.19 ± 0.086 | 0.99 ± 0.036 | 1.11 ± 0.024 | 1.11 ± 0.14 | 1.13 ± 0.1 | 1.18 ± 0.019 |  | 1.29 ± 0.074 | 1.3 ± 0.099 | 1.25 ± 0.047 | 1.1 ± 0.079
143B BONE | 0.992 ± 0.0085 | 1.018 ± 0.0064 | 1.04 ± 0.022 | 1.01 ± 0.027 | 1.04 ± 0.012 | 1.05 ± 0.015 | 1.05 ± 0.022 | 1.05 ± 0.013 | 1.07 ± 0.022 | 1.1 ± 0.03 |  | 1.1 ± 0.013 | 1.15 ± 0.1 | 1.14 ± 0.043 |  | 1.14 ± 0.11
A549 LUNG | 1.04 ± 0.067 | 1.03 ± 0.053 | 1.04 ± 0.053 | 1.04 ± 0.061 | 1.06 ± 0.087 | 1.03 ± 0.044 | 1.13 ± 0.073 | 1.12 ± 0.025 | 1.09 ± 0.035 | 1.07 ± 0.026 | 1.11 ± 0.041 | 1.09 ± 0.041 |  | 1.11 ± 0.049 | 1.1 ± 0.033 | 1.12 ± 0.016
ASKA SYNOVIAL | 1.12 ± 0.063 | 1.04 ± 0.045 | 1.13 ± 0.082 | 1.12 ± 0.1 | 1.19 ± 0.11 | 1.21 ± 0.024 | 1.09 ± 0.044 | 1.04 ± 0.041 | 1.1 ± 0.017 | 1.09 ± 0.03 | 1.23 ± 0.1 | 1.08 ± 0.095 | 1.21 ± 0.095 |  | 1.19 ± 0.1 | 1.07 ± 0.094
BT20 BREAST | 1.15 ± 0.07 | 1.2 ± 0.077 | 1.21 ± 0.093 | 1.01 ± 0.15 | 1.05 ± 0.088 | 1.05 ± 0.16 | 1.24 ± 0.16 | 1.08 ± 0.2 | 1.21 ± 0.064 | 1.22 ± 0.12 |  | 1.16 ± 0.062 | 1.45 ± 0.19 |  | 1.14 ± 0.033 | 1.46 ± 0.035
BT549 BREAST | 1.1 ± 0.043 | 1.16 ± 0.27 | 1.24 ± 0.031 | 1.11 ± 0.26 | 1.04 ± 0.15 | 1.15 ± 0.056 | 1.11 ± 0.087 | 1.06 ± 0.11 | 1.15 ± 0.1 | 1.13 ± 0.068 |  | 1.12 ± 0.044 | 1.21 ± 0.11 |  | 1.17 ± 0.04 | 1.1 ± 0.15
C33A CERVIX | 0.874 ± 0.037 | 0.937 ± 0.094 | 1 ± 0.14 | 1 ± 0.11 | 1.06 ± 0.097 | 1.14 ± 0.056 | 1.02 ± 0.1 | 0.955 ± 0.088 | 0.921 ± 0.058 | 0.999 ± 0.073 |  | 1.09 ± 0.1 | 1.05 ± 0.022 | 1.15 ± 0.08 |  | 1.08 ± 0.045
CADOES1 SOFT TISSUE | 0.975 ± 0.14 | 0.885 ± 0.14 | 0.859 ± 0.14 | 0.885 ± 0.049 | 0.897 ± 0.1 | 0.836 ± 0.11 | 0.839 ± 0.075 | 0.842 ± 0.17 | 0.94 ± 0.11 | 0.897 ± 0.035 | 0.926 ± 0.08 | 0.872 ± 0.012 | 1.03 ± 0.085 |  | 0.948 ± 0.02 | 1.05 ± 0.14
CAL51 BREAST | 0.974 ± 0.023 | 0.975 ± 0.011 | 0.983 ± 0.011 | 0.98 ± 0.031 | 0.973 ± 0.045 | 0.976 ± 0.022 | 0.853 ± 0.051 | 0.755 ± 0.0033 | 1.04 ± 0.096 |  | 1.08 ± 0.036 | 1.06 ± 0.055 | 1.1 ± 0.012 | 1.08 ± 0.024 | 1.06 ± 0.033 | 1.09 ± 0.054
CAL72 BONE | 1.14 ± 0.086 | 1.12 ± 0.046 | 1.14 ± 0.088 | 1.12 ± 0.062 | 1.16 ± 0.069 | 1.18 ± 0.12 | 1.01 ± 0.13 | 0.613 ± 0.051 | 1.11 ± 0.14 | 1.09 ± 0.11 | 1.12 ± 0.065 | 1.07 ± 0.1 | 1.12 ± 0.14 | 1.15 ± 0.2 |  | 1.14 ± 0.087
CAL120 BREAST | 0.968 ± 0.014 | 0.984 ± 0.028 | 1.01 ± 0.023 | 1.01 ± 0.024 | 0.9848 ± 0.0086 | 0.984 ± 0.028 | 0.866 ± 0.024 | 0.753 ± 0.049 | 0.995 ± 0.073 | 0.978 ± 0.041 | 0.994 ± 0.091 |  | 1.04 ± 0.044 | 1.03 ± 0.021 | 0.97 ± 0.045 | 0.992 ± 0.07
CASKI CERVIX | 0.944 ± 0.077 | 0.98 ± 0.096 | 0.988 ± 0.014 | 1.01 ± 0.019 | 1.026 ± 0.0064 | 1.08 ± 0.063 | 0.985 ± 0.073 | 0.956 ± 0.073 | 0.935 ± 0.028 | 0.9783 ± 0.0081 | 1.01 ± 0.048 | 0.962 ± 0.029 | 0.919 ± 0.037 | 1.06 ± 0.042 | 1.06 ± 0.06 | 1 ± 0.04
CHLA90 AUTONOMIC GANGLIA | 0.984 ± 0.039 | 0.999 ± 0.043 | 0.954 ± 0.05 | 1 ± 0.077 | 0.972 ± 0.049 | 0.939 ± 0.051 | 1.05 ± 0.043 | 1.04 ± 0.034 | 1 ± 0.022 | 1.02 ± 0.071 | 0.993 ± 0.063 | 0.98 ± 0.12 |  | 1.12 ± 0.084 | 1.02 ± 0.091 | 1.11 ± 0.079
CME SYNOVIAL | 1.28 ± 0.14 | 1.25 ± 0.12 | 1.18 ± 0.092 | 1.17 ± 0.3 | 1.22 ± 0.076 | 1.1 ± 0.038 | 0.847 ± 0.074 | 0.91 ± 0.029 | 1.27 ± 0.17 | 1.4 ± 0.045 | 1.28 ± 0.03 | 1.24 ± 0.16 | 1.15 ± 0.047 | 1.22 ± 0.1 | 1.37 ± 0.042 | 1.14 ± 0.055
COLO320DM LARGE INTESTINE | 1.16 ± 0.058 | 1.1 ± 0.077 | 1.05 ± 0.053 | 1.1 ± 0.18 | 1.17 ± 0.033 | 1.1 ± 0.072 | 1.14 ± 0.067 | 1.11 ± 0.068 | 1.1 ± 0.17 | 1.14 ± 0.052 | 1.08 ± 0.16 | 1.12 ± 0.11 | 1.15 ± 0.12 | 1.12 ± 0.12 | 1.14 ± 0.098 | 1.16 ± 0.039
DU4475 BREAST | 1.02 ± 0.26 | 1.12 ± 0.21 | 0.991 ± 0.23 | 0.994 ± 0.17 | 0.935 ± 0.22 | 1.06 ± 0.16 | 0.912 ± 0.2 | 0.994 ± 0.26 | 1.04 ± 0.18 | 1.1 ± 0.028 |  | 1.11 ± 0.13 | 1.21 ± 0.049 | 1.09 ± 0.15 |  | 1.09 ± 0.1
H23 LUNG | 1.03 ± 0.054 | 1.05 ± 0.06 | 1.06 ± 0.079 | 1.05 ± 0.08 | 1.05 ± 0.049 | 1.12 ± 0.074 | 1.15 ± 0.068 | 1.17 ± 0.069 | 1.04 ± 0.049 | 1.01 ± 0.021 | 1.06 ± 0.031 | 1.07 ± 0.0035 | 1.12 ± 0.066 | 1.08 ± 0.07 | 1.13 ± 0.061 | 1.13 ± 0.065
HCC78 LUNG | 1.08 ± 0.28 | 1.02 ± 0.24 | 0.93 ± 0.32 | 1.04 ± 0.22 | 1.08 ± 0.044 | 1.07 ± 0.22 | 1.02 ± 0.1 | 0.978 ± 0.14 | 0.936 ± 0.094 | 1.03 ± 0.16 | 0.997 ± 0.043 |  | 1.34 ± 0.16 | 1.04 ± 0.072 |  | 1.18 ± 0.091
HCC202 BREAST | 1.04 ± 0.13 | 0.977 ± 0.21 | 1.1 ± 0.33 | 1.32 ± 0.17 | 0.801 ± 0.56 | 1.15 ± 0.18 | 0.783 ± 0.6 | 0.946 ± 0.25 | 1.44 ± 0.69 | 0.908 ± 0.013 | 1.28 ± 0.18 |  | 1.3 ± 0.15 | 1.11 ± 0.34 | 1.32 ± 0.45 | 1.39 ± 0.35
HCC1395 BREAST | 0.937 ± 0.018 | 0.948 ± 0.079 | 0.932 ± 0.05 | 1.03 ± 0.058 | 1 ± 0.11 | 1.03 ± 0.045 | 0.999 ± 0.098 | 0.845 ± 0.075 | 1.23 ± 0.023 | 1.06 ± 0.11 | 1.24 ± 0.097 | 1.36 ± 0.13 | 1.15 ± 0.068 | 1.19 ± 0.16 | 1.36 ± 0.049 | 1.11 ± 0.29
HCC1806 BREAST | 1.02 ± 0.018 | 0.932 ± 0.099 | 1.12 ± 0.13 | 1.13 ± 0.089 | 1.24 ± 0.079 | 1.1 ± 0.13 | 0.961 ± 0.088 | 0.941 ± 0.13 | 1.06 ± 0.044 | 1.05 ± 0.093 | 1.12 ± 0.07 | 1.16 ± 0.021 | 0.983 ± 0.077 | 1.15 ± 0.15 | 1.24 ± 0.08 | 0.956 ± 0.15
